Columns and labels:
Assay in all cases: relative viability (nuclei count vs DMSO), 5 days (fraction); higher = more cells survive
A-427 = tested on: A-427
In short: (§1)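 Relative viability divides the nuclei count in treated wells by that in vehicle wells. Lung cancer cell lines were seeded in 1536-well plates, dosed by pin tool the next day, and fixed and stained after 5 days in one step with final 0.05% Triton X-100, 1% formaldehyde and 1 ug/ml Hoechst. Dosing was a single drug or a fixed anchor-drug dose plus five library-drug doses (not always all listed) in √10 steps, and values are medians of duplicate plates imaged at 4×.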

COR-L 105 = tested on: COR-L 105
In short: as §1

ChaGo-K-1 = tested on: ChaGo-K-1
In short: as §1

EKVX = tested on: EKVX
In short: as §1

EMC-BAC-2 = tested on: EMC-BAC-2
In short: as §1

H3255 = tested on: H3255
In short: as §1

HCC-366 = tested on: HCC-366
In short: as §1

LK-2 = tested on: LK-2
In short: as §1

LOU-NH91 = tested on: LOU-NH91
In short: as §1

NCI-H1563 = tested on: NCI-H1563
In short: as §1

NCI-H1666 = tested on: NCI-H1666
In short: as §1

NCI-H1734 = tested on: NCI-H1734
In short: as §1

NCI-H1755 = tested on: NCI-H1755
In short: as §1

NCI-H1975 = tested on: NCI-H1975
In short: as §1

NCI-H2170 = tested on: NCI-H2170
In short: as §1

NCI-H23 = tested on: NCI-H23
In short: as §1

NCI-H441 = tested on: NCI-H441
In short: as §1

NCI-H520 = tested on: NCI-H520
In short: as §1

NCI-H596 = tested on: NCI-H596
In short: as §1

PC-3 [JPC-3] = tested on: PC-3 [JPC-3]
In short: as §1

SK-MES-1 = tested on: SK-MES-1
In short: as §1

SW 900 = tested on: SW 900
In short: as §1

Cc1sc2c(c1C)C(c1ccc(Cl)cc1)=N[C@@H](CC(=O)OC(C)(C)C)c1nnc(C)n1-2 [JQ1] + Cc1nc(Nc2ncc(C(=O)Nc3c(C)cccc3Cl)s2)cc(N2CCN(CCO)CC2)n1 [Dasatinib] (partner 0.075 µM) gave a relative viability (A-427; first compound 0.04 µM) of 0.759, a relative viability (A-427; first compound 0.1265 µM) of 0.592 and a relative viability (A-427; first compound 0.4 µM) of 0.696. For the same compound, the relative viability (A-427; first compound 1.265 µM) was 0.696, the relative viability (A-427; first compound 4 µM) was 0.529 and the relative viability (COR-L 105; first compound 0.04 µM) was 0.297. It also gave a relative viability (COR-L 105; first compound 0.1265 µM) of 0.186, a relative viability (COR-L 105; first compound 0.4 µM) of 0.156 and a relative viability (COR-L 105; first compound 1.265 µM) of 0.119. For the same compound, the relative viability (COR-L 105; first compound 4 µM) was 0.132, the relative viability (ChaGo-K-1; first compound 0.04 µM) was 0.663 and the relative viability (ChaGo-K-1; first compound 0.1265 µM) was 0.462. For the same compound, the relative viability (ChaGo-K-1; first compound 0.4 µM) was 0.44, the relative viability (ChaGo-K-1; first compound 1.265 µM) was 0.485 and the relative viability (ChaGo-K-1; first compound 4 µM) was 0.397. The relative viability (EKVX; first compound 0.04 µM) was 0.517, the relative viability (EKVX; first compound 0.4 µM) was 0.473 and the relative viability (EKVX; first compound 1.265 µM) was 0.45. It also gave a relative viability (EKVX; first compound 4 µM) of 0.417, a relative viability (EMC-BAC-2; first compound 0.04 µM) of 0.33 and a relative viability (EMC-BAC-2; first compound 0.1265 µM) of 0.235. It also gave a relative viability (EMC-BAC-2; first compound 0.4 µM) of 0.254, a relative viability (EMC-BAC-2; first compound 1.265 µM) of 0.205 and a relative viability (EMC-BAC-2; first compound 4 µM) of 0.371. It also gave a relative viability (H3255; first compound 0.04 µM) of 0.438, a relative viability (H3255; first compound 0.1265 µM) of 0.319 and a relative viability (H3255; first compound 0.4 µM) of 0.504. It also gave a relative viability (H3255; first compound 1.265 µM) of 0.317, a relative viability (H3255; first compound 4 µM) of 0.269 and a relative viability (HCC-366; first compound 0.04 µM) of 0.667. The relative viability (HCC-366; first compound 0.4 µM) was 0.599, the relative viability (HCC-366; first compound 1.265 µM) was 0.368 and the relative viability (HCC-366; first compound 4 µM) was 0.324. The relative viability (LK-2; first compound 0.04 µM) was 0.254, the relative viability (LK-2; first compound 0.1265 µM) was 0.156 and the relative viability (LK-2; first compound 0.4 µM) was 0.162. It also gave a relative viability (LK-2; first compound 1.265 µM) of 0.108, a relative viability (LK-2; first compound 4 µM) of 0.112 and a relative viability (LOU-NH91; first compound 0.04 µM) of 0.549. It also gave a relative viability (LOU-NH91; first compound 0.1265 µM) of 0.463, a relative viability (LOU-NH91; first compound 0.4 µM) of 0.324 and a relative viability (LOU-NH91; first compound 1.265 µM) of 0.326. For the same compound, the relative viability (LOU-NH91; first compound 4 µM) was 0.354, the relative viability (NCI-H1563; first compound 0.04 µM) was 0.446 and the relative viability (NCI-H1563; first compound 0.1265 µM) was 0.405. It also gave a relative viability (NCI-H1563; first compound 0.4 µM) of 0.533, a relative viability (NCI-H1563; first compound 1.265 µM) of 0.443 and a relative viability (NCI-H1563; first compound 4 µM) of 0.362. For the same compound, the relative viability (NCI-H1666; first compound 0.04 µM) was 0.791, the relative viability (NCI-H1666; first compound 0.1265 µM) was 0.593 and the relative viability (NCI-H1666; first compound 0.4 µM) was 0.587. For the same compound, the relative viability (NCI-H1666; first compound 1.265 µM) was 0.554, the relative viability (NCI-H1666; first compound 4 µM) was 0.504 and the relative viability (NCI-H1734; first compound 0.04 µM) was 0.55. For the same compound, the relative viability (NCI-H1734; first compound 0.1265 µM) was 0.444, the relative viability (NCI-H1734; first compound 0.4 µM) was 0.457 and the relative viability (NCI-H1734; first compound 1.265 µM) was 0.454. For the same compound, the relative viability (NCI-H1734; first compound 4 µM) was 0.382, the relative viability (NCI-H1755; first compound 0.04 µM) was 0.421 and the relative viability (NCI-H1755; first compound 0.1265 µM) was 0.277. The relative viability (NCI-H1755; first compound 0.4 µM) was 0.373, the relative viability (NCI-H1755; first compound 1.265 µM) was 0.343 and the relative viability (NCI-H1755; first compound 4 µM) was 0.2. It also gave a relative viability (NCI-H1975; first compound 0.04 µM) of 0.414, a relative viability (NCI-H1975; first compound 0.1265 µM) of 0.316 and a relative viability (NCI-H1975; first compound 0.4 µM) of 0.305. It also gave a relative viability (NCI-H1975; first compound 1.265 µM) of 0.227, a relative viability (NCI-H1975; first compound 4 µM) of 0.241 and a relative viability (NCI-H2170; first compound 0.04 µM) of 0.57. It also gave a relative viability (NCI-H2170; first compound 0.1265 µM) of 0.47, a relative viability (NCI-H2170; first compound 0.4 µM) of 0.392 and a relative viability (NCI-H2170; first compound 1.265 µM) of 0.334. It also gave a relative viability (NCI-H2170; first compound 4 µM) of 0.305, a relative viability (NCI-H23; first compound 0.04 µM) of 0.666 and a relative viability (NCI-H23; first compound 0.1265 µM) of 0.656. It also gave a relative viability (NCI-H23; first compound 0.4 µM) of 0.579, a relative viability (NCI-H23; first compound 1.265 µM) of 0.275 and a relative viability (NCI-H23; first compound 4 µM) of 0.344. For the same compound, the relative viability (NCI-H441; first compound 0.04 µM) was 0.558, the relative viability (NCI-H441; first compound 0.1265 µM) was 0.572 and the relative viability (NCI-H441; first compound 0.4 µM) was 0.634. It also gave a relative viability (NCI-H441; first compound 1.265 µM) of 0.273, a relative viability (NCI-H441; first compound 4 µM) of 0.209 and a relative viability (NCI-H520; first compound 0.04 µM) of 0.206. For the same compound, the relative viability (NCI-H520; first compound 0.1265 µM) was 0.196, the relative viability (NCI-H520; first compound 0.4 µM) was 0.207 and the relative viability (NCI-H520; first compound 1.265 µM) was 0.159. For the same compound, the relative viability (NCI-H520; first compound 4 µM) was 0.221, the relative viability (NCI-H596; first compound 0.04 µM) was 0.671 and the relative viability (NCI-H596; first compound 0.1265 µM) was 0.456. The relative viability (NCI-H596; first compound 0.4 µM) was 0.559, the relative viability (NCI-H596; first compound 1.265 µM) was 0.281 and the relative viability (NCI-H596; first compound 4 µM) was 0.29. The relative viability (PC-3 [JPC-3]; first compound 0.04 µM) was 0.998, the relative viability (PC-3 [JPC-3]; first compound 0.1265 µM) was 1.02 and the relative viability (PC-3 [JPC-3]; first compound 0.4 µM) was 1.16. It also gave a relative viability (PC-3 [JPC-3]; first compound 1.265 µM) of 0.96, a relative viability (PC-3 [JPC-3]; first compound 4 µM) of 0.578 and a relative viability (SK-MES-1; first compound 0.04 µM) of 0.338. It also gave a relative viability (SK-MES-1; first compound 0.1265 µM) of 0.273, a relative viability (SK-MES-1; first compound 0.4 µM) of 0.311 and a relative viability (SK-MES-1; first compound 1.265 µM) of 0.168. The relative viability (SK-MES-1; first compound 4 µM) was 0.171, the relative viability (SW 900; first compound 0.04 µM) was 0.521 and the relative viability (SW 900; first compound 0.1265 µM) was 0.456. For the same compound, the relative viability (SW 900; first compound 0.4 µM) was 0.298, the relative viability (SW 900; first compound 1.265 µM) was 0.193 and the relative viability (SW 900; first compound 4 µM) was 0.135.

— the supplement of paper PMC10307832
